These results are taken from publication PMC7956625, “Optimization and Anti-Cancer Properties of Fluoromethylketones as Covalent Inhibitors for Ubiquitin C-Terminal Hydrolase L1” (Molecules, 2021).

For one test, the target named is T1, His-UCHL1 (Homo sapiens, UniProt P09936).
T1 construct: made in house
T1 sequence (P09936 1-223): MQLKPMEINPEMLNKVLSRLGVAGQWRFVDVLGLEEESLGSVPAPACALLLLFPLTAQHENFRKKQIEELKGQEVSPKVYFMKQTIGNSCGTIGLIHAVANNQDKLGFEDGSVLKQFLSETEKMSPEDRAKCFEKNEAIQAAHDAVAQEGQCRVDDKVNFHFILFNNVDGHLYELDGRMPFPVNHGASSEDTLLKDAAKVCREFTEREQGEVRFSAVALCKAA
Nature of the test: Ub binding affinity analysis using biolayer interferometry. Particulars: His-UCHL1 preincubated with 1 (2 mM) overnight at room temperature.

The next test deals with KMS11 cells. Kind of test: KMS cell proliferation assay (IncuCyte). The class given is cell-based. Particulars: 100 µM; 24, 48, 72 and 96 h. The protocol:
(§1) The proliferation of KMS11 and KMS12 cells was monitored using an IncuCyte devise (Sartorius, Goettingen, Germany; www.essenbioscience.com, accessed on 31 August 2020). Cells (3 × 10^4 per well; 200 µL) were seeded in triplicate in 96 well plates the night prior to the addition of compounds. The IncuCyte was set to collect images from five fields per well at 4-h intervals by using the nuclear dye Nuclight Red (Sartorius). At each timepoint, the number of cells per well was deter- mined by taking the mean of the five locations in each well. The relative proliferation at each timepoint was normalized, with 100% set as the number of cells observed for incubated with DMSO (0.1%) controls at 72 h.

The next test deals with KMS12 cells. Nature of the test: KMS cell proliferation assay (IncuCyte). The class given is cell-based. Conditions: 100 µM; 24 to 96 h; cells do not express UCHL1. The protocol: as §1
The target in another test is T2, UCHL3 (Homo sapiens, UniProt P15374).
T2 sequence (P15374 1-230): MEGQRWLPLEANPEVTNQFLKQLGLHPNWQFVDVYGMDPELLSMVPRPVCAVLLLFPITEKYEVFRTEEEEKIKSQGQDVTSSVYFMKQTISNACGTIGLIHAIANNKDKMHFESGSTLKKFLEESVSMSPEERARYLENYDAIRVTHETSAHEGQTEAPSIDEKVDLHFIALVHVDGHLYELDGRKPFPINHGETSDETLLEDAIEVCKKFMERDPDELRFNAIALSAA
Nature of the test: KMS cell activity-based probe (HA-Ub-VME) target engagement assay. Particulars: 0–250 µM, 4 h, UCHL3 immunoblot. The protocol: (§2) To confirm on-target engagement in KMS11 cells, a Ub activity-based probe (ABP) gel-shift assay was employed. Using the hemagglutinin-tagged Ub-vinylmethylester (HA-Ub-VME) ABP to examine the activity of 1 in KMS11 cells, an immunoblot was performed. Cells were treated in dose-response with 1 (0–250 µM), washed with PBS, then lysed and treated with HA-Ub-VME. The HA-Ub-VME labels any remaining DUBs that have not been inhibited by 1.
(§3) Twelve hours prior to the addition of compounds to the cells, 1.2 million KMS11 or KMS12 cells mL^−1 per well were seeded in a 12 well plate. Cells were incubated with inhibitor for 4 h before washing the cells three time with PBS to remove excess compound. Cells were harvested, pelleted, and lysed in 60 µL of lysis buffer (0.5%NP-40 in 50 mM Tris pH 7.4). HA-Ub-VME was then added to a final concentration of 1 µM and incubated for 1 h at room temperature. An equal volume of 2X Laemmli sample buffer was added, and the samples were heated to 95 °C before separating by gel electrophoresis and analyzed by immunoblot.
(In general: In western blotting, separated proteins are transferred to a membrane and probed.)

A further test deals with T3, UCHL5 (Homo sapiens, UniProt Q9Y5K5).
T3 sequence (Q9Y5K5 1-245 limits assumed): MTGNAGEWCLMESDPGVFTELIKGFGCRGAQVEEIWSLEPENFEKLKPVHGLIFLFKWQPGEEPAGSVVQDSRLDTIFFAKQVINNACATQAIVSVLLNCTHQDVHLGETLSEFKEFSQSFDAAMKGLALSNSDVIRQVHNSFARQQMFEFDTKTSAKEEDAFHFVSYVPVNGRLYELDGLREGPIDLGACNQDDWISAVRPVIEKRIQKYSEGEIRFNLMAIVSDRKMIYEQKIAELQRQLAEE
Nature of the test: KMS cell activity-based probe (HA-Ub-VME) assay, HA blot higher exposure. Conditions: 250 µM, KMS11 cells. The protocol:
as §2, §3

Another test addresses T4, UCHL1 (Homo sapiens, UniProt P09936).
T4 sequence (P09936 1-223): T1 sequence (P09936 1-223)
Nature of the test: Fluorescence-based Ub-Rho deubiquitinase activity assay. The class given is biochemical. The arrangement: made in house. Conditions: IC50, after approximately 112 min preincubation.

A further test addresses T5, UCHL1 C90A (Homo sapiens, UniProt P09936, C90A).
T5 construct: His (N); made in house
T5 sequence (P09936 1-223 C90A): T1 sequence (P09936 1-223) with C90A
Kind of test: Click reaction and in-gel fluorescence, recombinant protein. It is filed as binding. Particulars: 10 µM inhibitor, 3 h, Cy5-Azide click. The protocol:
(§4) A common shortcoming to covalent inhibitors is that the reactive electrophilic groups may partake in non-specific labeling of off-target cysteines. To investigate if alternative cysteines are affected on UCHL1 we used analog 34 to confirm that the fluoromethylketone derivatives only conjugate Cys90. […] Additionally, samples were analyzed by mass spectrometry to increase sensitivity for detection of any non-Cys90 adducts. […]
(§5) Solutions containing 1 mg/mL recombinant UCHL1^WT or UCHL1^C90A (from pET15b) (49 µL) was incubated with 10 µM inhibitor for 3 h at room temperature in PBS starting block buffer (Thermo Scientific # 37538). After 3 h, 6 µL of a freshly prepared cocktail was added to each sample, consisting of: 3 µL 1.7 mM THPTA in 1:4 DMSO/tBuOH (100 µM final concentration), 1 µL 50 mM CuSO4 (1 mM final concentration), 1 µL TCEP HCl (25 µM final concentration), and 1 uL Cy5-Azide (#AZ118, Click Chemistry Tools, Scottsdale, AZ, USA; 25 µM final concentration). The samples were allowed to react for 2 h at room temperature protected from light before precipitating the sample by adding 600 µL MeOH, 150 µL chloroform, and 400 µL water, vortexing between each addition. The samples were pelleted by centrifuging at […] for 5 min. […] The samples were then analyzed by SDS-PAGE and imaged on an Odyssey system (LI-COR, Lincoln, NE, USA) and subsequently Coomassie stained.

The next test addresses T6, UCHL1^WT (Homo sapiens, UniProt P09936).
T6 construct: His (N); made in house
T6 sequence (P09936 1-223): T1 sequence (P09936 1-223)
The test is described as above. It is filed as binding. Particulars: 10 µM inhibitor, 3 h, Cy5-Azide click. The protocol:
as §4, §5

Residue numbers refer to the chain shown, from its start. Entries after “also recorded” stand apart in the source; their conditions may differ. Where a SMILES comes first, the peptide text is derived from it. The star is where a group is joined. Cbz = O=C(OCc1ccccc1)*; CH2F = FC*

Protocol for His-UCHL1: The concentration of His-UCHL1 was determined by A280 on a NanoDrop system (Thermo Scientific), after which His-UCHL1 was diluted into BLI buffer [1× PBS containing 0.05% (v/v) Tween 20 and 0.1% (w/v) bovine serum albumin (BSA)]. […] The Ni-NTA biosensor was dipped first into BLI buffer (initial baseline, 60 s), then into the His-UCH protein wells (loading step, 300 s), then into BLI buffer alone (baseline step, 60 s), then into the lowest concentration of UbV (association step, 120 s), and then into buffer alone (dissociation step, 100 s). A reference sensor loaded with protein was dipped into wells containing only buffer to adjust for protein-buffer signals. The association-dissociation was repeated with increasing concentrations of UbV. All measurements were taken at 30 °C.
Octet RED384 Data Analysis Software (ForteBio, version 9.0.0.15) was used to collect and analyze the raw data for the association and dissociation curves.

By IC50 is commonly meant the concentration at which inhibition is half-maximal. Lower therefore signals higher potency. Take `COC(=O)CC[C@H](NC(=O)[C@H](C)NC(=O)[C@@H](NC(=O)OCc1ccccc1)C(C)C)C(=O)CF` [Cpd 1, benzyloxycarbonyl-Val-Ala-Glu(γ-methoxy)-fluoromethylketone] (Cbz-Val-Ala-Glu(OMe)-CH2F): the “effect of conjugated 1 on UCHL1:Ub interaction” value at His-UCHL1 was “completely abrogated the ability of UCHL1 to interact with Ub”. Further, the “proliferation of KMS11 cells compared to DMSO” value in the test on KMS11 cells is recorded as “reduced proliferation; also recorded: anti-proliferative properties”. In addition, the “proliferation of KMS12 cells compared to DMSO” value in the test on KMS12 cells is “showed reduced growth at the 24-h timepoint but regained proliferative ability at the 96-h timepoint”. The “HA-Ub-UCHL3 complex formation in KMS11 cells” value at UCHL3 is given as “does not inhibit UCHL3 in cells”. Besides, the “inhibition of DUB corresponding to the molecular weight UCHL5” value against UCHL5 was “may also be inhibited”. In addition, at UCHL1, the IC50 worked out at 29 µM.

Regarding `C#Cc1ccc(COC(=O)N[C@H](C(=O)N[C@@H](C)C(=O)N[C@@H](CCC(=O)OC)C(=O)CF)C(C)C)cc1` [Cpd 34], the “covalent adduct with UCHL1 C90A (in-gel fluorescence)” value at UCHL1 C90A is recorded as “does not form an adduct; also recorded: no fluorescent bands were observed”. At UCHL1^WT, the “covalent adduct with WT-UCHL1 (in-gel fluorescence)” value was “forms a covalent adduct with WT-UCHL1; also recorded: formed a covalent adduct”.
